From patent US20190015312A1, “COSMETIC FORMULATIONS” (KIMBERLY-CLARK WORLDWIDE, INC., priority 2015, published 2019) come the findings set out here.

This experiment deals with volunteer human subjects. Description: Human clinical anti-perspirant study, gravimetric perspiration on lower back. The format is in vivo. The settings on record: Table D study; Acetyl Hexapeptide-30 and Pentapeptide-18 tested in combination. As for the experimental part:
The effectiveness of the peptide material at addressing perspiration was evaluated in a human clinical study. The screening of various potential sweat-reducing materials was determined using at least 20 volunteer human subjects. Twenty-four subjects were planned for enrollment into the study to ensure that 20 subjects completed testing. Baseline screening was performed on up to 40 subjects to ensure a sufficient number of subjects were enrolled in the treatment application phase who met minimum sweat production criteria of 50 mg over a 20-minute collection period. As shown in Table C and Table D, each subject had seven test materials randomly applied to the lower back in 2 inch by 2 inch treatment application areas and one site was left untreated on each subject as a control. The study subjects participated in a 4-day test period consisting of four, supervised treatment applications, spaced 24-hours apart, and one post treatment application sweat collection period 1-hour post-product application on Day 4. The study staff visually assessed the application sites, and applied each of the test materials to the backs of the subjects. […] Subjects were instructed to not leave the room during the approximately 60-minute test period. • Absorbent gauze sponges, 2 inch by 2 inch (two 4-ply sponges, Avant Gauze® Sponges), were applied to the eight sites on the lower back of the subjects. Sponges were occluded on the site using 3MTM BlendermTM Medical Tape, and affixed to the site using Scanpor® Paper Tape. • The sponges remained in place for a 20-minute acclimation period. […] Subjects were not allowed to consume water during this 20-minute period. • Following the 20-minute period, the sponges with the 3MTM BlendermTM Medical Tape were removed and sealed in a bag or container for weighing within 1-hour of removal. • After exiting the temperature-controlled room, the subjects again sat in normal ambient indoor temperature for at least 20-minutes, and trained technicians determined the body temperature, pulse, and blood pressure of each subject. […]

As to Acetyl Dipeptide-1 Cetyl Ester, the “Activity of the peptide in the presence of a salt based cosmetic astringent, in words” value is listed as “high activity”. As to Acetyl Hexapeptide-30, the “Activity of the peptide in the presence of a salt based cosmetic astringent, in words” value was “high activity”. The entry for Pentapeptide-18 is “high activity”.
